Measured values: US12128012B2, “Ketamine treatment for amyotrophic lateral sclerosis” (University of Kansas, priority 2020, dated 2024)

Columns and labels:
Format in all cases: in vivo
[1] = tested on: SOD1-G93A mouse model of ALS; test: Body weight in SOD1-G93A mice under ketamine
From the text: (§1) Testing can be performed in SOD1-G93A mice as follows. Body weight and grip strength during a hanging wire test can be measured 3 days a week beginning at 90 days of age (presymptomatic). Drug injections can be made immediately after motor testing. Mice can be tested until they reach end-stage as defined by loss of righting reflex for 30 seconds or if they are found dead in their cage. At death, the muscles (soleus, tibialis anterior, and diaphragm) and brains can be harvested for histological analyses. Comparisons of neuromuscular junction innervation and myosin heavy chain isoforms can be made between the treatment groups. Experiments can determine cortical motor neuronal integrity using standard histological methods.
(§2) Experiments were performed to determine the effects of daily sub-anesthetic doses (e.g., less than 100 mg/kg) of ketamine on the SOD1-G93A mouse model of ALS. The method included administering two doses of ketamine (e.g., 10 mg/kg and 30 mg/kg) and a saline vehicle to three groups of SOD1-G93A mice per day for 5 days per week beginning at 90 days of age. The method included measuring body weight, grip strength, and survival.
The three groups (e.g., 12 mice per group with intraperitoneal injection): vehicle (e.g., 0), 10 mg/kg (e.g., 10), and 30 mg/kg (e.g., 30) are shown (p=0.06). […] As such, the 10 mg/kg dosage may be useful for ALS patients. […] Accordingly, increasing the amount of ketamine administered may increase the effects described herein. Any increase in life (e.g., probability of survival) can be beneficial, which may be accomplished by treatment with the ketamine compound.

[2] = tested on: SOD1-G93A mouse model of ALS; test: Survival (day of death) in SOD1-G93A mice
From the text: as §1, §2
As shown, treatment with the ketamine compound appears to provide a higher probability of survival for a longer period of time for both the 10 mg/kg and 30 mg/kg dosages (p=0.06; FIG. 2). […]

[3] = tested on: SOD1-G93A mouse model of ALS; test: Grip strength, hanging wire test, SOD1-G93A mice; conditions: 10 mg/kg and 30 mg/kg vs saline vehicle, 5 days per week from 90 days of age; data not shown
From the text: as §1, §2

[4] = tested on: SOD1-G93A mouse model of ALS; test: Latency between 20% loss of body weight and death in SOD1-G93A mice; conditions: for latency between 20% loss of body weight and death: FIG. 3 (vehicle about 2 days)
Method: as §2
Additionally, the latency in days between the day in which each mouse reached 80% of its initial body weight (i.e., 20% reduction) and the day of death as defined above was calculated. […] Accordingly, higher dosages may still provide for longer latency of life, or longer life expectancy.

CNC1(c2ccccc2Cl)CCCCC1=O (stereo not shown) [ketamine, 2-(2-chlorophenyl)-2-(methylamino)cyclohexan-1-one]
effects on body weight ([1]; 10 mg/kg and 30 mg/kg vs saline vehicle, 5 days per week from 90 days of age, data not shown): no significant effects | probability of survival curve for day body weight fell below 80% ([1]; 10 mg/kg intraperitoneal vs vehicle, FIG. 1): improvement in the probability of survival | loss of body weight (muscle mass), trend in survival curve ([1]; 30 mg/kg intraperitoneal vs 10 mg/kg or without ketamine, FIG. 1): delays loss of body weight (muscle mass) for a longer period of time | survival analysis: day in which body weight fell below 80%, difference between the groups ([1]; vehicle, 10 mg/kg, 30 mg/kg, intraperitoneal, 12 mice per group, FIG. 1, p=0.06): no significant difference | probability of survival (day of death: loss of righting reflex for 30 seconds or found dead) ([2]; 10 mg/kg vs vehicle, FIG. 2, overall p=0.06): some improvement over the vehicle | probability of survival (day of death: loss of righting reflex for 30 seconds or found dead) ([2]; 30 mg/kg vs vehicle, FIG. 2, p<0.05): survived significantly longer than the vehicle-treated group | effects on grip strength using the hanging wire test [3]: no significant effects | longer life expectancy than no treatment ([4]; 10 mg/kg vs vehicle): about 4 days | latency between 20% loss of body weight and death ([4]; 10 mg/kg): about 6 days | longer life expectancy over the 10 mg/kg treatment ([4]; 30 mg/kg vs 10 mg/kg): about 4 days | longer life expectancy than no treatment ([4]; 30 mg/kg vs vehicle): about 8 days | latency between 20% loss of body weight and death ([4]; 30 mg/kg): about 10 days | latency between 20% loss of body weight and death, effect of dose ([4]; vehicle, 10 and 30 mg/kg, ANOVA p<0.05, FIG. 3): statistically significant dose-dependent increase
